Measured values reported in patent US20220142169A1, “INHIBITING INSECTICIDE RESISTANCE AND MAKING SUSCEPTIBLE INSECTS HYPER-SUSCEPTIBLE TO PESTICIDES” (priority 2019, published 2022).

Tests used:
[1] = system: Drosophila melanogaster DDT-resistant 91-R strain; test: DDT mortality bioassay (glass vial, 24 h) after two days of inhibitor feeding; assay type: in vivo; settings: for LD50: 24 h; for ratio of LD50 optimal / sub-optimal rearing conditions / Resistance Ratio: DDT; for ratio of LD50 optimal / sub-optimal rearing conditions: no inhibitor; for reduction of level of DDT resistance: optimal rearing condition; for decrease of DDT resistance: sub-optimal rearing condition
Description: (§1) Flies of 1-2 day old (females and males) were introduced into a plastic vial (28 mm×95 mm height) and fed with inhibitors mixed in 5% sucrose solution. […] After fed with inhibitor solutions for two days, 20 females or males from either the 91-R or 91-C strains were used in all DDT bioassays. To explore the effect of inhibitors, fruit flies under two different rearing conditions: optimal rearing condition and sub-optimal rearing condition were used in our study. Under optimal rearing condition, 100 pairs of flies were maintained in bottles (containing 50 ml standard medium) and allowed for laying eggs for four days. All adults were then removed to make sure the suitable density of larva. Differently, adults were not removed until emerging of next generation under sub-optimal rearing condition. Simply, optimal rearing condition provided enough food for flies, but sub-optimal rearing condition faced certain food pressure.
(§2) Briefly, various concentrations of DDT dissolved in acetone were transferred into 20 ml transparent glass vials and each rolled on its side in a fume hood till the acetone evaporated. […] Vials were capped with cotton plugs moistened with a 5% sucrose solution in distilled water. The number of dead flies were recorded after 24 hours.
(§3) For RT-qPCR, statistical analysis was performed using Student's t-test to compare the results between 91-C and 91-R. For glycogen assay and body weight, One-way ANOVA was used, and means comparisons were made by using Student's t test (p<0.05) by using SPSS software (Version 19.0; SPSS Inc., USA). The median lifespan under fed or starvation conditions were calculated using the Probit function in SPSS (Version 19.0; SPSS Inc, USA). For mortality bioassay, Probit analysis was conducted by using SPSS software (Version 19.0; SPSS Inc, USA).

[2] = system: Drosophila melanogaster DDT-susceptible 91-C strain; test: as above; assay type: in vivo; settings: for LD50: 24 h; for reduction of level of DDT resistance: optimal rearing condition; for decrease of DDT resistance: sub-optimal rearing condition
Description: as §1, §2, §3

GSK3β-PO = settings: listed beside gene GSK3β-PO; cited from earlier work
Drosophila 91-R strain = test: Cypermethrin mortality bioassay (glass vial, 24 h) after inhibitor feeding; assay type: in vivo, Drosophila melanogaster; settings: for LD50: 24 h
Protocol: (§4) Adult flies were placed in bottles with instant drosophila blue diet (Formula 2-24®, carolina.com) made with inhibitor solutions for two days.
(§5) 200 μl of each concentration of solution as well as 200 μl acetone were transferred into 20 ml transparent glass vials and rolled on its side in a fume hood till the acetone completely evaporated. 20 flies of 91C, 91R and Canton-S stains were placed into vials for either female or male. Vials were capped with cotton plugs moistened with a 5% sucrose solution in distilled water. The number of dead flies were recorded after 24 hours. […] For each strain by sex combination, 8 concentrations of dosage were used including 0 control. A total of 8×3×20 flies were used for each of strain by sex combinations. For mortality bioassay, Probit analysis tool in SAS was used (SAS 9.4, SAS Ins, USA).

Drosophila 91-C strain = test: as above; assay type: in vivo, Drosophila melanogaster; settings: for LD50: 24 h
Protocol: as §4, §5

[3] = system: Drosophila Canton-S strain; test: as above; assay type: in vivo, Drosophila melanogaster; settings: for LD50: 24 h
Protocol: as §4, §5

[4] = DDT LD50, 91-R♀, optimal dietary rearing
[5] = DDT LD50, 91-R♀, sub-optimal dietary rearing
[6] = DDT LD50, 91-R♂, optimal dietary rearing
[7] = DDT LD50, 91-R♂, sub-optimal dietary rearing
[8] = DDT LD50, 91-C♀, optimal dietary rearing, Hys 10 mM, LiCl 20 mM fed 2 days
[9] = DDT LD50, 91-C♂ (so in the source), sub-optimal dietary rearing
[10] = DDT LD50, 91-C♂, optimal dietary rearing

Clc1ccc(C(c2ccc(Cl)cc2)C(Cl)(Cl)Cl)cc1 [DDT]
LD50 [1, 4]: 136883.00 μg/vial
LD50 [1, 5]: 523.34 μg/vial
LD50 [1, 6]: 66073.00 μg/vial
LD50 [1, 7]: 143.70 μg/vial
ratio of LD50 optimal / sub-optimal rearing conditions ([1]; 91-R females): 261.56
ratio of LD50 optimal / sub-optimal rearing conditions ([1]; 91-R males): 459.80
LD50 [2, 8]: 51.59 μg/vial
LD50 [2, 9]: 6.77 μg/vial
LD50 [2, 10]: 19.81 μg/vial
ratio of LD50 optimal / sub-optimal rearing condition ([2]; DDT, 91-C females, no inhibitor): 7.62

NC1=N[C@H]2c3c([nH]c(Br)c3Br)C(=O)N3CCC[C@]23N1 [Dibromocantharelline]
IC50 (GSK3β-PO): 3 µM

NC1=NC(=O)/C(=C2\CCNC(=O)c3[nH]c(Br)cc32)N1 [Hymenialdesine]
IC50 (GSK3β-PO): 0.01 µM

NN.O=S(=O)(O)O [Hys, hydrazine sulphate]
Synergism Ratio (Drosophila 91-R strain; 91-R♀): 3.87
Synergism Ratio (Drosophila 91-R strain; 91-R♂): 3.88
Synergism Ratio (Drosophila 91-C strain; 91-C♀): 4.39
Synergism Ratio (Drosophila 91-C strain; 91-C♂): 5.73
Synergism Ratio ([3]; Canton-S ♀): 3.58
Synergism Ratio ([3]; Canton-S ♂): 3.78

[Cl-].[Li+] [LiCl, lithium chloride]
IC50 (GSK3β-PO): 2000 µM
reduction of level of DDT resistance ([1]; 91-R females): 1.6 fold
decrease of DDT resistance ([1]; 91-R females): 3.3 fold
reduction of level of DDT resistance ([1]; 91-R males): 20.5 fold
decrease of DDT resistance ([1]; 91-R males): no significant decreased in resistance levels
resistance ratio reduction / decrease of DDT resistance ([1]; 91-R, both sexes, optimal rearing conditions): 1.6-20.5 fold
LD50 [1, 4]: 83375.00 μg/vial
LD50 [1, 5]: 157.63 μg/vial
LD50 [1, 6]: 3224.00 μg/vial
LD50 [1, 7]: 126.69 μg/vial
Resistance Ratio ([1]; 91-R♀, optimal rearing): 1.64
Resistance Ratio ([1]; 91-R♀, sub-optimal rearing): 3.37
Resistance Ratio ([1]; 91-R♂, optimal rearing): 20.49
Resistance Ratio ([1]; 91-R♂, sub-optimal rearing): 1.13
reduction of level of DDT resistance ([2]; 91-C females): 4.2 fold
decrease of DDT resistance ([2]; 91-C females): 2.3 fold
reduction of level of DDT resistance ([2]; 91-C males): 2.7 fold
decrease of DDT resistance ([2]; 91-C males): 2.3 fold
LD50 ([2]; DDT LD50, 91-C♀ (so in the source), sub-optimal dietary rearing): 0.94 μg/vial
LD50 [2, 8]: 12.17 μg/vial
LD50 [2, 9]: 2.96 μg/vial
LD50 [2, 10]: 7.22 μg/vial
Resistance Ratio ([2]; DDT, 91-C♀ (so in the source), sub-optimal rearing): 2.26
Resistance Ratio ([2]; DDT, 91-C♂ (so in the source), sub-optimal rearing): 2.29
Resistance Ratio ([2]; DDT, 91-C♂, optimal rearing): 2.74
Resistance Ratio ([2]; control LD50 vs inhibitor-fed, DDT, 91-C♀, optimal rearing): 4.24
Synergism Ratio (Drosophila 91-R strain; 91-R♀): 4.58
LD50 (Drosophila 91-R strain; 91-R♀): 0.17 μg/vial
Synergism Ratio (Drosophila 91-R strain; 91-R♂): 3.36
LD50 (Drosophila 91-R strain; 91-R♂): 0.08 μg/vial
Synergism Ratio (Drosophila 91-C strain; 91-C♀): 4.93
LD50 (Drosophila 91-C strain; 91-C♀): 0.13 μg/vial
Synergism Ratio (Drosophila 91-C strain; 91-C♂): 11.92
LD50 (Drosophila 91-C strain; 91-C♂): 0.03 μg/vial
Synergism Ratio ([3]; Canton-S ♀): 0.74
LD50 ([3]; Canton-S ♀, Hys 10 mM, LiCl 20 mM in diet 2 days): 0.78 μg/vial
Synergism Ratio ([3]; Canton-S ♂): 0.60
LD50 ([3]; Canton-S ♂): 0.9 μg/vial
